Test results published in US20230286955A1, “INHIBITORS OF THEM1” (Cornell University, priority 2022, published 2023).
Entries after “also recorded” stand apart in the source; their conditions may differ.

How the values were obtained:
[1] = in vitro; conditions: C57BL/6, mouse, primary brown adipocytes
[2] = biological target: T1, Them1-ΔSTART (Homo sapiens, UniProt Q8WXI4); assay: Microscale thermophoresis binding, Them1-ΔSTART; conditions: for binding to Them1-ΔSTART: in words; for Kd: read-out: Kd, Thioesterase domains (Them1-ΔSTART ), MST, 100 nM labeled protein, 22° C.
T1 sequence (Q8WXI4 43-329 isoform Q8WXI4-2 limits assumed): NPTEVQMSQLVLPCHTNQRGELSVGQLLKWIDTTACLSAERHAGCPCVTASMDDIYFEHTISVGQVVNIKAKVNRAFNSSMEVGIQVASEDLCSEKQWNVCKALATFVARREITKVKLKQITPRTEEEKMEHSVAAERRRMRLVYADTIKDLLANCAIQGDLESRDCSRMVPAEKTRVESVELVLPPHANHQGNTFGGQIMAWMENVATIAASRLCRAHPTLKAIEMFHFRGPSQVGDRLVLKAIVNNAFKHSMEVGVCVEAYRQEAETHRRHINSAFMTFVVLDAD

[3] = system: primary hepatocytes; assay: Glucose production in primary hepatocytes; format: cell-based, mouse; conditions: compound 33 μM, pyruvate 2 mM, lactate 20 mM
Procedure: (§1) Primary hepatocytes cultured were prepared from 6- to 14-w old wild type, L-Them1Tg and Them1^−/− mice following anesthesia with ketamine and xylazine. Livers were perfused through the portal vein with 20 mL of liver perfusion medium (Thermo Fisher; Walham, MA) followed by 40 mL of liver digestion medium (Thermo Fisher; Walham, MA). Primary hepatocytes were gently disrupted from the liver capsule into hepatocyte wash medium (Thermo Fisher; Waltham, MA), filtered through a 70 μm cell strainer and then spun down at 30×g for 4 min at 4° C. Primary hepatocytes were cultured in William's Medium E (Thermo Fisher; Waltham, MA) supplemented with 1% penicillin/streptomycin and 10% fetal bovine serum. […] Cultured primary hepatocytes were maintained in a cell culture incubator at 37° C. with 5% CO2.
Rates of glucose production were determined as previously described with modifications (Kawano et al., 2014). Primary hepatocytes cultured from wild type, L-Them1Tg and Them1^−/' mice were serum-starved in Medium 199 (Thermo Fisher; Waltham, MA) for 16 h and then washed twice with PBS. […] Glucose concentrations in the media were measured enzymatically through a commercial kit according to the manufacturer's instructions using a NEO plate reader (BioTek, Winooski, VT).

[4] = biological target: full-length human Acot12 (Homo sapiens, UniProt Q8WYK0); assay: biochemical
full-length human Acot12, sequence (Q8WYK0 whole entry): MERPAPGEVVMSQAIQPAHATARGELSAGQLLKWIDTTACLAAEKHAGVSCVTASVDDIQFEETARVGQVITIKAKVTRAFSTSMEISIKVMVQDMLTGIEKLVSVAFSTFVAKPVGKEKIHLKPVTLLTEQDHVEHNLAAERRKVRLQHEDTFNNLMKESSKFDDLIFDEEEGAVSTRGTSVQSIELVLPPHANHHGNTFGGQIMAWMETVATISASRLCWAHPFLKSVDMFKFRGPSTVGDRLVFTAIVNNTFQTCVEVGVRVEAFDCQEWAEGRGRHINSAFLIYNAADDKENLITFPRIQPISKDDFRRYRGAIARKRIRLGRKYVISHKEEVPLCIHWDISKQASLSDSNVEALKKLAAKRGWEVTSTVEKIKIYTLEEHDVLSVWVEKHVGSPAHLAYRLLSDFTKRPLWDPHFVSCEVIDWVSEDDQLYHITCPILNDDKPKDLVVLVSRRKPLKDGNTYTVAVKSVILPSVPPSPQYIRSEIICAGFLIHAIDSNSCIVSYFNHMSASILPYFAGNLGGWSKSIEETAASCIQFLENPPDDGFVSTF

[5] = biological target: T2, recombinant mouse Them1 (Mus musculus, UniProt Q8VHQ9); assay: Acot activity assay, mouse Them1; format: biochemical; conditions: in words (FIG. 6B)
T2 construct: made in house; host or cells: E. coli BL21 (DE3)
T2 sequence (Q8VHQ9 21-594): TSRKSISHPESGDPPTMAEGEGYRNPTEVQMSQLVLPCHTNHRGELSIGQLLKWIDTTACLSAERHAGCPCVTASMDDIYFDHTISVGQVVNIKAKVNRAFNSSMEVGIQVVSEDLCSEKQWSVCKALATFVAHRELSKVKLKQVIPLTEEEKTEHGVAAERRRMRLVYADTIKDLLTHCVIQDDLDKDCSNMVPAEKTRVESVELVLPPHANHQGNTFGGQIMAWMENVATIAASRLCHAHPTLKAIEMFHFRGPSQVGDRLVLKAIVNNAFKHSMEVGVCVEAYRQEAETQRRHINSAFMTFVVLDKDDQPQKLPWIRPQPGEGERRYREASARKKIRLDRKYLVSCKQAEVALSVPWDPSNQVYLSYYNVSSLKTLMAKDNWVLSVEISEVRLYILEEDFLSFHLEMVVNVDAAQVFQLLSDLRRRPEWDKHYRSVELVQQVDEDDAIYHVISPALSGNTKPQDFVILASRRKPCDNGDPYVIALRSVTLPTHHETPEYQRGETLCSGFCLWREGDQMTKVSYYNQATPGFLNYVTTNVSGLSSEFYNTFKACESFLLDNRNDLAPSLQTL
Excerpt: (Zhang et al., 1999). Values are show in the following Table.

[6] = system: primary hepatocytes; assay: Oxygen consumption rates (OCR) in primary hepatocytes after palmitate; format: cell-based, mouse; conditions: compound 33 μM, palmitate-BSA 300 μM
Procedure: as §1
In primary hepatocytes, values of OCR were measured using a Seahorse XF24 extracellular flux analyzer (Agilent Technologies; Santa Clara, CA). […] OCR values were measured before and after the exposure of cells to palmitic acid conjugated with fatty acid-free BSA (300 μM) and normalized with total live cell count calculated through staining with NucRed Live probe (Thermo Fisher; Waltham, MA) measured at 715 nm emission and 623 nm excitation using a SpectraMax i3X plate reader (Molecular Devices; San Jose; CA).

[7] = system: primary brown adipocytes cultured from A-Them1Tg mice; assay: Oxygen consumption rates (OCR) in primary brown adipocytes; format: cell-based, mouse
Procedure: Primary brown adipocytes from 4- to 6-w old wild type and A-Them1Tg mice were isolated, cultured and differentiated as described (Okada et al., 2016). In brief, BAT tissues harvested from 5- to 7-w old mice were pooled, minced and digested with collagenase B (Sigma-Aldrich; St. Louis, MO), and dispersed in growth medium [DMEM/F12 containing 4.5 g/L glucose, 0.1 mM pyruvate, 10 mM HEPES (Thermo Fisher; Waltham, MA) supplemented with 1% penicillin/streptomycin, 1% GlutaMAX (Thermo Fisher; Waltham, MA) and 20% fetal bovine serum]. […] Upon achieving confluence, pre-adipocytes were induced to differentiate for 8 d by culturing for the first 48 h in differentiation medium [DMEM/F12 containing 4.5 g/L glucose, 0.1 mM pyruvate, 10 mM HEPES (Thermo Fisher; Waltham, MA) supplemented with 1% penicillin/streptomycin, 1% GlutaMAX (Thermo Fisher; Waltham, MA), 10% fetal bovine serum, bovine insulin (5 μg/mL; Thermo Fisher; Waltham, MA) and rosiglitazone (1 μM; Sigma Aldrich; St. Louis, MO)] supplemented with dexamethasone (5 μM; Sigma Aldrich; St. Louis, MO) and 3-isobutyl-1-methylxanthine (0.5 mM; Sigma Aldrich; St. Louis, MO) and differentiation medium thereafter. On differentiation d 6 to 8, the adipocyte differentiation media was supplemented with L-(−)-norepinephrine (+) bitartrate (Calbiochem; EMD Millipore; Billerica, MA). Primary brown adipocytes were maintained in a cell culture incubator at 37° C. with 5% CO2.
In primary brown adipocytes on d 8 of differentiation, values of OCR were measured in the presence or absence of compounds using a Seahorse XF96 extracellular flux analyzer (Agilent Technologies; Santa Clara, CA). […] OCR values were measured before and after the exposure of cells to NE (1 μM) and normalized with total live cell count calculated through staining with NucRed Live probe (Thermo Fisher; Waltham, MA) measured at 715 nm emission and 623 nm excitation using a SpectraMax i3X plate reader (Molecular Devices; San Jose; CA).

[8] = biological target: T3, recombinant His-tagged human Them1 (Homo sapiens, UniProt Q8WXI4); assay: Assay for reversibility of Them1 inhibition (dialysis); format: biochemical; conditions: compounds […], C14-CoA 25 μM, 18 h dialysis
T3 construct: Reaction labeling recombinant full-length Them1; made in house; host or cells: E. coli Shuffle T7
T3 sequence (Q8WXI4 14-594 isoform Q8WXI4-2 limits assumed): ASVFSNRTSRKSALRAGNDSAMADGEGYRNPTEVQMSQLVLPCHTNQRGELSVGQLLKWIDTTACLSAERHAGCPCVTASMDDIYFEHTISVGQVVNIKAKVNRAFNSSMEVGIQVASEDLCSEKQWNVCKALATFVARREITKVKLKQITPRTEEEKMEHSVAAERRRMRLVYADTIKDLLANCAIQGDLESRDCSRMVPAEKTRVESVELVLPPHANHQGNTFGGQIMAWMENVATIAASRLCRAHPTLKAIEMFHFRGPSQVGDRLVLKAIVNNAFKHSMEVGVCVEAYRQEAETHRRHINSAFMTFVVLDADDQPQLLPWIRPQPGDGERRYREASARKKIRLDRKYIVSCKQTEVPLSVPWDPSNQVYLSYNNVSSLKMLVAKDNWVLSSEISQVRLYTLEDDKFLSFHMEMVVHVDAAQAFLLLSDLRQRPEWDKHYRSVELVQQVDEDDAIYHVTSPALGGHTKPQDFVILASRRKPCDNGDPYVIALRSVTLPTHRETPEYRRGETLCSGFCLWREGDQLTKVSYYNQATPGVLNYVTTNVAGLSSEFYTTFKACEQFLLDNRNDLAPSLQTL
Procedure: Three buffer changes were performed over the extent of the 18 h dialysis. Post-dialysis reactions were incubated with fresh C14-CoA (25 μM) for 60 min at 22° C. Ebselen (Sigma Aldrich; St. Louis, MO) was used as a (−) control.

[9] = biological target: T4, full-length Them1 (Homo sapiens, UniProt Q8WXI4); assay: biochemical
T4 sequence (Q8WXI4 14-594 isoform Q8WXI4-2 limits assumed): T3 sequence (Q8WXI4 14-594 isoform Q8WXI4-2 limits assumed)

[10] = biological target: T4, full-length Them1; assay: Microscale thermophoresis binding, full-length Them1; conditions: in words
[11] = biological target: T5, Them1 START domain (Homo sapiens, UniProt Q8WXI4); assay: Microscale thermophoresis binding, START domain; conditions: in words
T5 sequence (Q8WXI4 339-594 isoform Q8WXI4-2): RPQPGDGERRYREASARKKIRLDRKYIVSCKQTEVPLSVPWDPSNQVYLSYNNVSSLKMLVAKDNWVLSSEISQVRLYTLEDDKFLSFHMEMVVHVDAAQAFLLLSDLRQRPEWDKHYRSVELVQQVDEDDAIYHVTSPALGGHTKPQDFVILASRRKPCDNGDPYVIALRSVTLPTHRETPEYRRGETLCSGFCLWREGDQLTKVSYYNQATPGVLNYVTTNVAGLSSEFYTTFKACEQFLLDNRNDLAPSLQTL

Kd [2]	glucose production in L-Them1Tg hepatocytes [3]	Kd [4]	inhibition of mouse Them1 activity compared to human Them1 [5]	OCR following palmitate stimulation in Them1−/− hepatocytes [6]	Them1 activity after overnight dialysis (reversibility of inhibition) [8]	Kd [9]	Kd / binding affinity to full-length Them1 compared to the parent U1 compound [10]	binding affinity to the START domain compared to the parent U1 compound [11]	SMILES	CC50 at 48 h [1]	binding to Them1-ΔSTART [2]	OCR following palmitate stimulation in L-Them1Tg hepatocytes [6]	OCR in A-Them1Tg brown adipocytes, reversal of Them1 suppression ([7]; NE-stimulated, compounds at 10 μM (FIGS. 3B-C, 8B-C))	OCR in A-Them1Tg brown adipocytes, reversal of Them1 suppression ([7]; compounds at their in vitro IC50 concentrations, 30 min, NE 1 μM, vs wild type (DMSO))
> 125 µM	reduced	> 125 µM	comparable potencies	did not increase OCR values	restored Them1 activity	–	–	–	CCOC(=O)N1CCN(C(c2cccs2)c2c(C)[nH]c3ccccc23)CC1 (stereo not drawn) [Compound U1, ethyl 4-((2-methyl-1H-indol-3-yl)(thiophen-2-yl)methyl)piperazine-1-carboxylate]	> 125 µM	lacked the capacity to bind; also recorded: lacked binding	reversed this suppressive effect of Them1	reversed the suppressive effects of Them1 activity	–
> 125 µM	–	> 125 µM	–	–	–	870 nM	tighter	tighter	Cc1[nH]c2ccccc2c1C(c1cccs1)N1CCN(C(=O)C(C)C)CC1 (stereo not drawn) [Compound U11, 2-methyl-1-(4-((2-methyl-1H-indol-3-yl)(thiophen-2-yl)methyl)piperazin-1-yl)propan-1-one]	> 125 µM	did not bind	–	–	reversed the suppressive effects of Them1 on values of OCR
